In patent US20220175768A1, “FGFR TYROSINE KINASE INHIBITORS FOR THE TREATMENT OF UROTHELIAL CARCINOMA” (Janssen Pharmaceutica NV, priority 2019, published 2022):

Settings: 8 mg continuous, selected regimen 3 (n = 99)
Protocol: Study treatment was administered on 28-day cycles. Prior to interim analysis 1, there were 2 treatment regimens. Patients were randomized 1:1 to 28-day cycles to the following 2 regimens until a regimen was selected for further study: Regimen 1 (10 mg once daily intermittent (7 days on/7 days); Regimen 2 (6 mg once daily continuous). Randomization was stratified according to performance status (0 to 1 vs. 2), hemoglobin value (<10 vs. ≥10 g per dl), FGFR alteration type (mutation vs. fusion), prior treatment status (chemotherapy-resistant vs. chemotherapy naïve), and disease distribution (presence or absence of visceral [liver, lung, bone] metastases). Starting dose selection was based on phase 1 efficacy and tolerability.
Thus, after interim analysis, this became a single-arm study. […] Treatment continued until disease progression or unacceptable adverse event(s) per investigator.
All objective responses required confirmation by an additional investigator assessment within 4 to 6 weeks of first assessment. Disease evaluations for regimen 3 were also performed by an independent radiographic review committee. […] Safety was evaluated based on clinical laboratory tests, physical exams, electrocardiograms, and ophthalmology examinations. Adverse events and abnormalities were assessed by investigator and graded per NCI CTCAE v.4.0
Prophylactic measures were taken to minimize risk of common adverse events related to FGFR inhibition. To reduce risk of hyperphosphatemia, a low-phosphate diet was recommended for all patients (600 to 800 mg of dietary phosphate intake per day). To reduce the risk of skin effects, the application of alcohol-free emollient moisturizing cream and avoidance of unnecessary exposure to sunlight, soap, perfumed products, and hot baths was recommended. Patients were asked to keep their fingers and toes clean and nails trimmed to reduce risk of nail effects.
Additional ophthalmology examinations were performed if clinically indicated.

COc1cc(OC)cc(N(CCNC(C)C)c2ccc3ncc(-c4cnn(C)c4)nc3c2)c1 [erdafitinib, N-(3,5-dimethoxy-phenyl)-N′-(1-methylethyl)-N-[3-(1-methyl-1H-pyrazol-4-yl)quinoxalin-6-yl]ethane-1,2-diamine]
Patients with Alanine aminotransferase increased, Grade 1: 13 (13) no. (%)
Patients with Alanine aminotransferase increased, Grade 2: 2 (2) no. (%)
Patients with Alanine aminotransferase increased, Grade ≥3: 2 (2) no. (%)
Patients with Alopecia, Any grade: 29 (29) no. (%)
Patients with Alopecia, Grade 1: 23 (23) no. (%)
Patients with Alopecia, Grade 2: 6 (6) no. (%)
Patients with Alopecia, Grade ≥3: 0 no. (%)
Patients with Anemia, Any grade: 20 (20) no. (%)
Patients with Anemia, Grade 1: 9 (9) no. (%)
Patients with Anemia, Grade 2: 7 (7) no. (%)
Patients with Anemia, Grade ≥3: 4 (4) no. (%)
Patients with Arthralgia, Any grade: 8 (8) no. (%)
Patients with Arthralgia, Grade 1: 5 (5) no. (%)
Patients with Arthralgia, Grade 2: 3 (3) no. (%)
Patients with Arthralgia, Grade ≥3: 0 no. (%)
Patients with Aspartate aminotransferase increased, Any grade: 10 (10) no. (%)
Patients with Aspartate aminotransferase increased, Grade 1: 8 (8) no. (%)
Patients with Aspartate aminotransferase increased, Grade 2: 2 (2) no. (%)
Patients with Aspartate aminotransferase increased, Grade ≥3: 0 no. (%)
Patients with Asthenia, Any grade: 20 (20) no. (%)
Patients with Asthenia, Grade 1: 2 (2) no. (%)
Patients with Asthenia, Grade 2: 11 (11) no. (%)
Patients with Asthenia, Grade ≥3: 7 (7) no. (%)
Patients with Back pain, Any grade: 5 (5) no. (%)
Patients with Back pain, Grade 1: 4 (4) no. (%)
Patients with Back pain, Grade 2: 1 (1) no. (%)
Patients with Back pain, Grade ≥3: 0 no. (%)
Patients with Blood creatinine increased, Any grade: 10 (10) no. (%)
Patients with Blood creatinine increased, Grade 1: 5 (5) no. (%)
Patients with Blood creatinine increased, Grade 2: 5 (5) no. (%)
Patients with Blood creatinine increased, Grade ≥3: 0 no. (%)
Patients with Conjunctivitis, Any grade: 13 (13) no. (%)
Patients with Conjunctivitis, Grade 1: 6 (6) no. (%)
Patients with Conjunctivitis, Grade 2: 7 (7) no. (%)
Patients with Conjunctivitis, Grade ≥3: 0 no. (%)
Patients with Constipation, Any grade: 28 (28) no. (%)
Patients with Constipation, Grade 1: 19 (19) no. (%)
Patients with Constipation, Grade 2: 8 (8) no. (%)
Patients with Constipation, Grade ≥3: 1 (1) no. (%)
Patients with Decreased appetite, Any grade: 38 (38) no. (%)
Patients with Decreased appetite, Grade 1: 18 (18) no. (%)
Patients with Decreased appetite, Grade 2: 20 (20) no. (%)
Patients with Decreased appetite, Grade ≥3: 0 no. (%)
Patients with Diarrhea, Any grade: 50 (51) no. (%)
Patients with Diarrhea, Grade 1: 31 (31) no. (%)
Patients with Diarrhea, Grade 2: 15 (15) no. (%)
Patients with Diarrhea, Grade ≥3: 4 (4) no. (%)
Patients with Dry eye, Any grade: 19 (19) no. (%)
Patients with Dry eye, Grade 1: 14 (14) no. (%)
Patients with Dry eye, Grade 2: 4 (4) no. (%)
Patients with Dry eye, Grade ≥3: 1 (1) no. (%)
Patients with Dry mouth, Any grade: 45 (46) no. (%)
Patients with Dry mouth, Grade 1: 34 (34) no. (%)
Patients with Dry mouth, Grade 2: 11 (11) no. (%)
Patients with Dry mouth, Grade ≥3: 0 no. (%)
Patients with Dry skin, Any grade: 32 (32) no. (%)
Patients with Dry skin, Grade 1: 24 (24) no. (%)
Patients with Dry skin, Grade 2: 8 (8) no. (%)
Patients with Dry skin, Grade ≥3: 0 no. (%)
Patients with Dysgeusia, Any grade: 37 (37) no. (%)
Patients with Dysgeusia, Grade 1: 23 (23) no. (%)
Patients with Dysgeusia, Grade 2: 13 (13) no. (%)
Patients with Dysgeusia, Grade ≥3: 1 (1) no. (%)
Patients with Dyspepsia, Any grade: 11 (11) no. (%)
Patients with Dyspepsia, Grade 1: 10 (10) no. (%)
Patients with Dyspepsia, Grade 2: 1 (1) no. (%)
Patients with Dyspepsia, Grade ≥3: 0 no. (%)
Patients with Dyspnea, Any grade: 8 (8) no. (%)
Patients with Dyspnea, Grade 1: 4 (4) no. (%)
Patients with Dyspnea, Grade 2: 2 (2) no. (%)
Patients with Dyspnea, Grade ≥3: 2 (2) no. (%)
Patients with Fatigue, Any grade: 32 (32) no. (%)
Patients with Fatigue, Grade 1: 12 (12) no. (%)
Patients with Fatigue, Grade 2: 18 (18) no. (%)
Patients with Fatigue, Grade ≥3: 2 (2) no. (%)
Patients with Hand-foot syndrome, Any grade: 23 (23) no. (%)
Patients with Hand-foot syndrome, Grade 1: 6 (6) no. (%)
Patients with Hand-foot syndrome, Grade 2: 12 (12) no. (%)
Patients with Hand-foot syndrome, Grade ≥3: 5 (5) no. (%)
Patients with Hematuria, Any grade: 10 (10) no. (%)
Patients with Hematuria, Grade 1: 7 (7) no. (%)
Patients with Hematuria, Grade 2: 1 (1) no. (%)
Patients with Hematuria, Grade ≥3: 2 (2) no. (%)
Patients with Hyperphosphatemia, Any grade: 76 (77) no. (%)
Patients with Hyperphosphatemia, Grade 1: 53 (54) no. (%)
Patients with Hyperphosphatemia, Grade 2: 21 (21) no. (%)
